Source: patent publication US11952365B2, “Anti-viral compounds” (Aligos Therapeutics, Inc., priority 2020, dated 2024)
Like-named read-outs stand apart in the source and are kept apart here.

Assays:
[1] = biological target: T1, human cathepsin L (Homo sapiens, UniProt P07711); experiment: cathepsin L assay; format: biochemical; conditions: 10 pM human cathepsin L, Z-FR-AMC 2 μM, class symbols
T1 construct: purchased R&D Systems
Procedure: For the cathepsin L assay, 10 pM of human cathepsin L (R&D Systems; Minneapolis, MN) was preincubated for 30 mins with test compounds. Reactions were initiated by the addition of a peptide substrate Z-FR-AMC (final concentration 2 μM, Anaspec; Fremont, CA). Fluorescence was measured at 2-minute intervals for 30 mins using a 355/460 excitation/emission filter module on an Envision plate reader (Perkin Elmer; Waltham, MA). The IC50 values were calculated for each assay by fitting the curves using a four-parameter equation in GraphPad Prism.

[2] = biological target: 3CLpro (Severe acute respiratory syndrome coronavirus 2, UniProt P0DTD1); experiment: SARS-CoV-2 3CLpro protease assay (duplex, SAMDI-MS); format: biochemical; parameters: For the duplex assay, 3CLpro and HRV3C was added; conditions: 3CLpro, 30 mins preincubation, class symbols; read-out: SARS-Cov-2 IC50
[3] = biological target: HRV3C (Human rhinovirus 14, UniProt P03303); experiment: HRV3C protease assay (duplex, SAMDI-MS); format: biochemical, HRV; conditions: 30 mins preincubation
Procedure: Protease assays were performed in 384-well low volume polypropylene microtiter plates at ambient temperature. For the duplex assay, 3CLpro and HRV3C was added using a Multidrop Combi (Thermo Scientific; Waltham, MA) and preincubated for 30 mins with small molecules. The reactions were initiated by the addition of the two peptide substrates. The reactions were incubated for 30 mins and quenched by the addition of 0.5% formic acid (final) with subsequent neutralization using 1% sodium bicarbonate (final). Internal standard peptides were added in 20 mM Hepes pH 8.0 for quantitation of the protease products. For SAMDI-MS analysis, 2 μL of each reaction mixture was transferred using a 384-channel automated liquid handler to SAMDI biochip arrays functionalized with a neutravidin-presenting self-assembled monolayer. The SAMDI arrays were incubated for 1 h in a humidified chamber to allow the specific immobilization of the biotinylated peptide substrates, cleaved products and internal standards. The samples were purified by washing the SAMDI arrays with deionized ultrafiltered water and dried with compressed air. A matrix comprising alpha-cyano cinnamic acid in 80% acetonitrile:20% aqueous ammonium citrate was applied in an automated format by dispensing 50 nL to each spot in the array. SAMDI-MS was performed using reflector-positive mode on an AB Sciex TOF-TOF 5800 System (AB Sciex, Framingham, MA) with 400 shots/spot analyzed in a random raster sampling. For data analysis, area under the curves (peaks) (AUCs) for the product and internal standard were calculated using the TOF/TOF Series Explorer (AB Sciex), and the amount of product formed was calculated using the equation (AUC product/AUC internal standard). The amount of product generated was calculated using the ratio of product area under the curve (AUC) divided by the AUC of the internal standard. Negative controls were pre-quenched with 0.5% formic acid final. Assay robustness was determined by Z-Factor. The IC50s were determined by fitting the curves using a four-parameter equation in Graphpad Prism 8.

[4] = test system: human beta-coronavirus OC43; experiment: microbe, parasite or virus in culture; format: cell-based; conditions: Betacoronavirus 1, OC43, HeLa, 144 h, OC43 in HeLa cells, 6 days at 33° C., read-out: EC50
[5] = Cytotoxicity plates without OC43 virus (cell-titer-glo); format: cell-based, human; conditions: human; HeLa cells without OC43 virus, class symbols
Procedure: The human beta-coronavirus OC43 was purchased from ATCC (Manassas, VA) and propagated using HCT-8 human colorectal epithelial cells (ATCC). HeLa human cervical epithelial cells (ATCC) were used as susceptible host cell lines and were cultured using EMEM media, supplemented with 10% fetal bovine serum (FBS), 1% (v/v) penicillin/streptomycin (P/S), 1% (v/v) HEPES and 1% (v/v) Cellgro Glutagro™ supplement (all Corning, Manassas, VA) at 37° C. For the OC43 antiviral assay, 1.5×10^4 HeLa cells per well were plated in 100 μL complete media in white 96-well plates with clear bottoms at 37° C. for up to 24 h to facilitate attachment and allow cells to recover from seeding stresses. Next day, the cell culture medium was removed. Serially diluted compounds in 100 μL assay media (EMEM, 2% FBS, 1% P/S, 1% Cellgro Glutagro™ supplement, 1% HEPES) were added to the cells and incubated for 4H at 37° C. in a humidified 5% CO2 incubator. 100 μL of OC43 virus stock was diluted to a concentration known to produce optimal cytopathic effect, inducing 80-90% reduction in cell viability. 96-well plates were incubated for 6 (HeLa) days at 33° C.; each plate contains uninfected control wells as well as virus-infected wells that were not treated with compound. Cytotoxicity plates without the addition of OC43 virus were carried out in parallel. At the end of the incubation period, 100 μL cell culture supernatant was replaced with 100 μL cell-titer-glo reagent (Promega, Madison, WI) and incubated for at least 10 min at rt prior to measuring luminescence. Luminescence was measured on a Perkin Elmer (Waltham, MA) Envision plate reader. Antiviral % inhibition was calculated as follows: [(Compound treated cells infected sample)−(no compound infected control)]/[(Uninfected control)−(no compound infected control)]*100; Using GraphPad (San Diego, CA) prism software version 8.3.1, the antiviral dose-response plot was generated as a sigmoidal fit, log(inhibitor) vs response-variable slope (four parameters) model and the EC50 was calculated which is the predicted compound concentration corresponding to a 50% inhibition of the viral cytopathic effect.

[6] = test system: SARS-CoV-2-GHB-03021/2020; experiment: microbe, parasite or virus in culture; format: cell-based; conditions: Severe acute respiratory syndrome coronavirus 2, Vero C1008, 96 h; read-out: VeroE6 + CP (EC50)
[7] = HRV3C, bound, read-out: HRV IC50
[8] = HRV3C, class symbols, read-out: HRV IC50

Compound | IC50 [1] [µM] | IC50 [2] [µM] | IC50 [3, 7] [µM] | EC50 ([4]; class symbols) [µM] | CC50 at 6 days [5] [µM] | IC50 [3, 8] [µM] | EC50 ([4]; bound) [µM] | EC50 [6] [µM] | IC50 ([3]; HRV IC50, HRV3C, class symbols) [µM]
N#C[C@H](C[C@@H]1CCNC1=O)NC(=O)[C@@H]1[C@H]2CCC[C@H]2CN1C(=O)c1nc2c(Cl)ccc(Cl)c2[nH]1 [Compound 186] | ≥ 10 | 0.2 to 2 | > 10 | – | – | – | – | – | –
CCOC(=O)c1cc(C(=O)N2C[C@@H]3CCC[C@@H]3[C@H]2C(=O)N[C@H](C#N)C[C@@H]2CCNC2=O)[nH]c1C [Compound 193] | ≥ 10 | 0.2 to 2 | > 10 | – | – | – | – | – | –
N#C[C@H](C[C@@H]1CCNC1=O)NC(=O)[C@@H]1[C@H]2CCC[C@H]2CN1C(=O)c1cc2c(OC3CC3)cc(Cl)cc2[nH]1 [Compound 185, (1S,3aR,6aS)-2-(6-chloro-4-cyclopropoxy-1H-indole-2-carbonyl)-N-[(1S)-1-cyano-2-[(3S)-2-oxopyrrolidin-3-yl]ethyl]-hexahydro-1H-cyclopenta[c]pyrrole-1-carboxamide] | ≥ 10 | 0.2 to 2 | > 10 | – | – | – | – | – | –
N#C[C@H](C[C@@H]1CCNC1=O)NC(=O)[C@@H]1[C@H]2CCC[C@H]2CN1C(=O)c1cc2c(Cl)cc(F)cc2[nH]1 [Compound 187] | ≥ 10 | 0.2 to 2 | > 10 | – | – | – | – | – | –
N#C[C@H](C[C@@H]1CCNC1=O)NC(=O)[C@@H]1[C@H]2CCC[C@H]2CN1C(=O)c1cc2c(Cl)cc(Cl)cc2[nH]1 [Compound 188] | ≥ 10 | 0.2 to 2 | > 10 | – | – | – | – | – | –
COc1cccc2[nH]c(C(=O)N3C[C@@H]4CCCC[C@@H]4[C@H]3C(=O)N[C@@H](C[C@@H]3CCCNC3=O)C(=O)CO)cc12 [Compound 59_1, (1S,3aR,7aS)—N—((S)-4-hydroxy-3-oxo-1-((S)-2-oxopiperidin-3-yl)butan-2-yl)-2-(4-methoxy-1H-indole-2-carbonyl)octahydro-1H-isoindole-1-carboxamide] | ≥ 10 | < 0.02 | – | 0.1 to 1 | > 10 | 2 to 20 | – | – | –
N#C[C@H](C[C@@H]1CCNC1=O)NC(=O)[C@@H]1[C@H]2CCC[C@H]2CN1C(=O)c1cc2c(OC(F)F)cccc2[nH]1 [Compound 190] | ≥ 10 | 0.2 to 2 | > 10 | – | – | – | – | – | –
COc1ccc(Cl)c2cc(C(=O)N3C[C@@H]4CCC[C@@H]4[C@H]3C(=O)N[C@@H](C[C@@H]3CCNC3=O)C(=O)CO)[nH]c12 [Compound 176] | ≥ 10 | 0.02 to 0.2 | > 10 | 0.1 to 1 | > 10 | – | – | – | –
COc1cc(F)c(F)c2[nH]c(C(=O)N3C[C@@H]4CCC[C@@H]4[C@H]3C(=O)N[C@@H](C[C@@H]3CCNC3=O)C(=O)CO)cc12 [Compound 184, (1S,3aR,6aS)-2-(6,7-difluoro-4-methoxy-1H-indole-2-carbonyl)-N-[(2S)-4-hydroxy-3-oxo-1-[(3S)-2-oxopyrrolidin-3-yl]butan-2-yl]-hexahydro-1H-cyclopenta[c]pyrrole-1-carboxamide] | ≥ 10 | < 0.02 | – | – | – | 2 to 20 | – | – | –
COc1ccc(F)c2[nH]c(C(=O)N3C[C@@H]4CCC[C@@H]4[C@H]3C(=O)N[C@H](C#N)C[C@@H]3CCNC3=O)cc12 [Compound 189] | ≥ 10 | 0.2 to 2 | > 10 | – | – | – | – | – | –
C#C[C@H](C[C@@H]1CCNC1=O)NC(=O)[C@@H]1[C@H]2CCC[C@H]2CN1C(=O)c1cc2c(Cl)ccc(Cl)c2[nH]1 [Compound 177, (1S,3aR,6aS)-2-(4,7-dichloro-1H-indole-2-carbonyl)-N-[(2S)-1-[(3S)-2-oxopyrrolidin-3-yl]but-3-yn-2-yl]-hexahydro-1H-cyclopenta[c]pyrrole-1-carboxamide] | ≥ 10 | 2 to 20 | > 10 | – | > 10 | – | > 10 | – | –
C=CC[C@@H]1C[C@@H](C(=O)N[C@@H](C[C@@H]2CCNC2=O)C(=O)C(=O)NCc2ccccc2)N(C(=O)c2cc3ccccc3[nH]2)C1 [Compound 21] | – | 0.2 to 2 | – | 0.1 to 1 | > 10 | – | – | 10 to 100 | 2 to 20
COc1nccc2[nH]c(C(=O)N3C[C@@H]4CCC[C@@H]4[C@H]3C(=O)N[C@H](C#N)C[C@@H]3CCNC3=O)cc12 [Compound 191] | ≥ 10 | 0.2 to 2 | > 10 | – | – | – | – | – | –
COc1cccc2[nH]c(C(=O)N3C[C@H]4CCCC[C@H]4[C@@H]3C(=O)N[C@@H](C[C@@H]3CCCNC3=O)C(=O)CO)cc12 [Compound 59_2, (1R,3aS,7aR)—N—((S)-4-hydroxy-3-oxo-1-((S)-2-oxopiperidin-3-yl)butan-2-yl)-2-(4-methoxy-1H-indole-2-carbonyl)octahydro-1H-isoindole-1-carboxamide] | ≥ 10 | 0.2 to 2 | > 10 | 1 to 10 | > 10 | – | – | – | –
COc1cc(Cl)cc2[nH]c(C(=O)N3C[C@@H]4CCC[C@@H]4[C@H]3C(=O)N[C@H](C#N)C[C@@H]3CCNC3=O)cc12 [Compound 192] | ≥ 10 | 0.2 to 2 | > 10 | – | – | – | – | – | –
COc1cccc2[nH]c(C(=O)N3CC4(C5CC5)CC3(C(=O)N[C@@H](C[C@@H]3CCNC3=O)C(=O)C(=O)NC3CC3)C4)cc12 [Compound 131] | ≥ 10 | 0.02 to 0.2 | – | – | > 10 | 0.02 to 0.2 | > 10 | – | –
N#C[C@H](C[C@@H]1CCNC1=O)NC(=O)[C@@H]1[C@H]2CCC[C@H]2CN1C(=O)c1cc2c(Cl)ccc(C(F)(F)F)c2[nH]1 [Compound 175] | ≥ 10 | 0.2 to 2 | > 10 | 1 to 10 | > 10 | – | – | – | –
COc1cccc2[nH]c(C(=O)N3C[C@H]4CCCC[C@H]4[C@@H]3C(=O)N[C@@H](C[C@@H]3CCCNC3=O)C(=O)COCc3ccccc3)cc12 (single isomer, unassigned) [Compound 59A_2] | ≥ 10 | 0.2 to 2 | > 10 | 1 to 10 | > 10 | – | – | – | –
